Test results from patent US8022225B2, “Triazole derivative” (Taisho Pharmaceutical Co., Ltd, priority 2004, dated 2011).

Legend:
human Edg-1(S1P1) [1] = target: T1, human Edg-1(S1P1) (Homo sapiens, UniProt P21453); assay: Membrane system binding test: inhibition of [33P]-S1P binding to the membrane fraction of Edg-1(S1P1) gene transferred HEK-293 cells; conditions: for inhibition at 10 µM: [33P]-S1P 0.1 nM
T1 construct: expressed in transfected cells; host or cells: HEK-293
Protocol: The membrane fraction was obtained by treating the cells with a solubilizing buffer (1 mM Tris/HCl, pH 7.2) for 10 minutes on ice, centrifuging the system (1000×g, 5 min) to remove insoluble fractions, and then centrifuging the system (40000×g, 30 min, 4° C.). The resulting membrane fraction was dissolved in a binding buffer (20 mM Tris-HCl, pH 7.4, 100 mM NaCl, 15 mM NaF, 2 mM deoxypyridoxine, 4 mg/mL fatty acid-free BSA), and then [^33P]-S1P (produced by ARC, end concentration 0.1 nM) and a DMSO solution of the test compound (end concentration of the compound: 10^−5 M, end concentration of DMSO: 0.1%) were added, followed by stirring the mixture and subsequently treating it for 1 hour at 30° C. Using a harvester, the membrane fraction was harvested onto unifilter-96GF/C filter (produced by Perkin-Elmer). Then, the filter with the membrane fraction was washed 4 times with the binding buffer, and the filter was dried. To the filter, 25 μL Microscint 0 (produced by Perkin-Elmer) was added, and the assay system was measured for radioactivity by means of Top Count NXT (Packard). Based on the radioactivity, the amount (A) of binding of [^33P]-S1P to the membrane fraction upon addition of the compound was calculated.
The same procedure was performed in the absence of the test compound, and the amount (B) of binding of [^33P]-S1P was calculated. Moreover, the same procedure was performed in the absence of the test compound with the use of HEK-293 cells, to which the Edg-1(S1P1) gene had not been transferred, and the background amount (C) of binding of [^33P]-S1P was calculated.
The Edg-1(S1P1) binding inhibition rate of the compound, calculated from the following equation, is shown in […]

human Edg-1(S1P1) [2] = target: T1, human Edg-1(S1P1); assay: Cell system binding test: inhibition of [3H]-S1P binding to Edg-1(S1P1) gene transferred HEK-293 cells; conditions: 10 μM compound, [3H]-S1P 10 nM, read-out: Cell system binding test % inhibition (10 μM)
Protocol: Cells (1×10^5 cells/well) obtained as described above were seeded in poly-L-lysine-coated 96-well plates (Corning Incorporated), and then incubated in a 5% carbon dioxide gas incubator for 12 hours at 37° C. with the use of an MEM medium (Invitrogen Corporation) containing 100 U/mL of penicillin, 100 μg/mL of streptomycin, a 1% MEM nonessential amino acid solution, and 10% FCS. […] After the cells were washed twice with the buffer, they were solubilized with 100 μL of Opti Phase Supermix (produced by Perkin-Elmer), and measured for radioactivity by means of Micro Beta (produced by Perkin-Elmer).
Inhibition rate(%)=[1−(A−C)/(B−C)]×100

[3] = 10 μM compound, membrane fraction of Edg-1(S1P1) gene transferred HEK-293 cells, read-out: Membrane system binding test % inhibition (10 μM)
[4] = test compound 10^-5 M, 1 hour at 30° C., HEK-293 membrane fraction, read-out: Edg-1(S1P1) binding inhibition rate (membrane system binding test)

T1 sequence (P21453 whole entry): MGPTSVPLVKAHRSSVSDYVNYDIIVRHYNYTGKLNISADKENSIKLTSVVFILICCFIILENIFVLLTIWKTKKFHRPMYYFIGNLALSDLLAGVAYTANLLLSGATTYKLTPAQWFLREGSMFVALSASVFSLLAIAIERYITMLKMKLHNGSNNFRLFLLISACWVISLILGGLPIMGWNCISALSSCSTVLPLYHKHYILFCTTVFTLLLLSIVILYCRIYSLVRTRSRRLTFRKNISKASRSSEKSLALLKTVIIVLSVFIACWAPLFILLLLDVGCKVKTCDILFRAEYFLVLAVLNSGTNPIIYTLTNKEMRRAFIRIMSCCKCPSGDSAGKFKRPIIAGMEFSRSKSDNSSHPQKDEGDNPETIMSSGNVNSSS

inhibition at 10 µM (human Edg-1(S1P1) [1]; [3]) [%] | inhibition at 10 µM (human Edg-1(S1P1) [2]) [%] | inhibition at 10 µM (human Edg-1(S1P1) [1]; [4]) [%] | Structure (SMILES) | Kd (human Edg-1(S1P1) [1]; radioligand binding, membrane fraction, read-out: Kd of binding to human Edg-1(S1P1) gene transferred HEK-293 cell strain membrane fraction) [nM]
101 | 88.5 | – | CCCSc1nnc([C@@H](C)NS(=O)(=O)c2ccc(Cl)cc2)n1CC [Compound 2] | –
89.1 | 86.1 | – | C=CCSc1nnc([C@@H](C)NS(=O)(=O)c2ccc(Cl)cc2)n1CC [Compound 3] | –
101 | 86.8 | – | C#CCSc1nnc([C@@H](C)NS(=O)(=O)c2ccc(Cl)cc2)n1CC [Compound 4] | –
85.6 | 83.9 | – | CCn1c(SC2CCCCC2)nnc1[C@@H](C)NS(=O)(=O)c1ccc(Cl)cc1 [Compound 8] | –
86.7 | 90.1 | – | CCn1c(SC2CCCC2)nnc1[C@@H](C)NS(=O)(=O)c1ccc(Cl)cc1 [Compound 9] | –
54.3 | 85.6 | – | CCn1c(SCC2CC2)nnc1[C@@H](C)NS(=O)(=O)c1ccc(Cl)cc1 [Compound 10] | –
85.9 | 87.8 | – | CCn1c(SCC2(c3ccc(Cl)cc3)CC2)nnc1[C@@H](C)NS(=O)(=O)c1ccc(Cl)cc1 [Compound 12] | –
43.6 | 80.8 | – | CCn1c(SCC2CCOC2)nnc1[C@@H](C)NS(=O)(=O)c1ccc(Cl)cc1 (stereo partly drawn) [Compound 13] | –
69.6 | 87 | – | C=CCCSc1nnc([C@@H](C)NS(=O)(=O)c2ccc(Cl)cc2)n1CC [Compound 14] | –
79.4 | 91 | – | CCn1c(SCCCC(F)(F)F)nnc1[C@@H](C)NS(=O)(=O)c1ccc(Cl)cc1 [Compound 15] | –
64.4 | 92.1 | – | CCn1c(SCCOC)nnc1[C@@H](C)NS(=O)(=O)c1ccc(Cl)cc1 [Compound 16] | –
90.6 | 85.5 | – | CCC#CCSc1nnc([C@@H](C)NS(=O)(=O)c2ccc(Cl)cc2)n1CC [Compound 17] | –
74.8 | 82.2 | – | C/C=C/CSc1nnc([C@@H](C)NS(=O)(=O)c2ccc(Cl)cc2)n1CC [Compound 21] | –
60.6 | 82.6 | – | CCn1c(SCC(=O)OC)nnc1[C@@H](C)NS(=O)(=O)c1ccc(Cl)cc1 [Compound 24] | –
77.8 | 81.5 | – | CCn1c(SCC2CCCCC2)nnc1[C@@H](C)NS(=O)(=O)c1ccc(Cl)cc1 [Compound 25] | –
61.1 | 84 | – | CCn1c(SCCSC)nnc1[C@@H](C)NS(=O)(=O)c1ccc(Cl)cc1 [Compound 26] | –
76 | 86.9 | – | CC#CCSc1nnc([C@@H](C)NS(=O)(=O)c2ccc(Cl)cc2)n1CC [Compound 27] | –
82.8 | 93.1 | – | CCn1c(SCC=C(C)C)nnc1[C@@H](C)NS(=O)(=O)c1ccc(Cl)cc1 [Compound 28] | –
95.9 | 93 | – | CCCCSc1nnc([C@@H](C)NS(=O)(=O)c2ccc(Cl)cc2)n1CC [Compound 29] | –
90 | 90.2 | – | CCn1c(SCC2CCO2)nnc1[C@@H](C)NS(=O)(=O)c1ccc(Cl)cc1 (stereo partly drawn) [Compound 31] | –
90 | 91.7 | – | CCn1c(SCC(C)C)nnc1[C@@H](C)NS(=O)(=O)c1ccc(Cl)cc1 [Compound 33] | –
76.4 | 91.5 | – | CCn1c(SCC2CCC2)nnc1[C@@H](C)NS(=O)(=O)c1ccc(Cl)cc1 [Compound 34] | –

Continued, compound first:

Structure (SMILES) | inhibition at 10 µM (human Edg-1(S1P1) [1]; [3]) [%] | inhibition at 10 µM (human Edg-1(S1P1) [2]) [%] | inhibition at 10 µM (human Edg-1(S1P1) [1]; [4]) [%] | Kd (human Edg-1(S1P1) [1]; radioligand binding, membrane fraction, read-out: Kd of binding to human Edg-1(S1P1) gene transferred HEK-293 cell strain membrane fraction) [nM]
CCn1c(SCc2ccccc2)nnc1[C@@H](C)NS(=O)(=O)c1ccc(Cl)cc1 [Compound 5, N-{(1R)-1-[5-(benzylthio)-4-ethyl-4H-1,2,4-triazol-3-yl]ethyl}-4-chloro-benzenesulfonamide] | 81.2 | 97.2 | – | –
CCn1c(SCc2ccc(-c3ccccc3)cc2)nnc1[C@@H](C)NS(=O)(=O)c1ccc(Cl)cc1 [Compound 6] | 99 | 94.3 | – | –
CCn1c(SCc2cccc(C#N)c2)nnc1[C@@H](C)NS(=O)(=O)c1ccc(Cl)cc1 [Compound 7] | 74.6 | 88.5 | – | –
CCn1c(SCc2ccc(F)cc2)nnc1[C@@H](C)NS(=O)(=O)c1ccc(Cl)cc1 [Compound 11] | 45.1 | 85.5 | – | –
CCn1c(SCCCC#Cc2ccccc2)nnc1[C@@H](C)NS(=O)(=O)c1ccc(Cl)cc1 [Compound 18] | 100 | 84.8 | – | –
CCn1c(SCCc2ccc(Cl)cc2)nnc1[C@@H](C)NS(=O)(=O)c1ccc(Cl)cc1 [Compound 19] | 100 | 82.5 | – | –
CCCC(CCC)Sc1nnc([C@@H](C)NS(=O)(=O)c2ccc(Cl)cc2)n1CC [Compound 20] | 74.3 | 84.3 | – | –
CCn1c(SCc2cccc(C)c2)nnc1[C@@H](C)NS(=O)(=O)c1ccc(Cl)cc1 [Compound 22] | 96.9 | 82.1 | – | –
CCn1c(SCCOc2ccccc2)nnc1[C@@H](C)NS(=O)(=O)c1ccc(Cl)cc1 [Compound 23] | 95 | 84.4 | – | –
CCCCCCCCSc1nnc([C@@H](C)NS(=O)(=O)c2ccc(Cl)cc2)n1CC [Compound 30] | 100 | 91.9 | – | –
CCn1c(SCc2ccccc2C)nnc1[C@@H](C)NS(=O)(=O)c1ccc(Cl)cc1 [Compound 32] | 99.1 | 89.1 | – | –
CCn1c([C@@H](C)NS(=O)(=O)c2ccc(Cl)c(Cl)c2)nnc1S(C)(=O)=O [Compound 532] | – | – | 53.8 | –
CCn1c(OC2CCCC2)nnc1[C@@H](Cc1ccccc1)NS(=O)(=O)c1ccc(Cl)c(Cl)c1 [Compound 533] | – | – | 98.9 | –
CCn1c(OC2CCCCC2)nnc1[C@@H](Cc1ccccc1)NS(=O)(=O)c1ccc(Cl)c(Cl)c1 [Compound 534] | – | – | 98.3 | –
CCn1c(OCCCOC)nnc1[C@@H](Cc1ccccc1)NS(=O)(=O)c1ccc(Cl)c(Cl)c1 [Compound 535] | – | – | 102 | –
CCOc1nnc([C@@H](Cc2ccccc2)NS(=O)(=O)c2ccc(Cl)c(Cl)c2)n1CC [Compound 536] | – | – | 98.4 | –
CCn1c(OC(C)C)nnc1[C@@H](Cc1ccccc1)NS(=O)(=O)c1ccc(Cl)c(Cl)c1 [Compound 537] | – | – | 101 | –
CCn1c(OCCCN2CCOCC2)nnc1[C@@H](Cc1ccccc1)NS(=O)(=O)c1ccc(Cl)c(Cl)c1 [Compound 538] | – | – | 103 | –
CCn1c(OCC2CC2)nnc1[C@@H](Cc1ccccc1)NS(=O)(=O)c1ccc(Cl)c(Cl)c1 [Compound 545] | – | – | 101 | –
CCn1c(OCc2ccccc2)nnc1[C@@H](Cc1ccccc1)NS(=O)(=O)c1ccc(Cl)c(Cl)c1 [Compound 546] | – | – | 96.9 | –
CCn1c(OC)nnc1[C@@H](Cc1ccc(-c2ccccc2)cc1)NS(=O)(=O)c1ccc(Cl)c(Cl)c1 [Compound 547] | – | – | 85.4 | –
CCn1c(OC)nnc1[C@@H](Cc1ccc(F)cc1)NS(=O)(=O)c1ccc(Cl)c(Cl)c1 [Compound 548] | – | – | 99.8 | –
CCn1c(OC)nnc1[C@@H](Cc1ccc(F)c(F)c1)NS(=O)(=O)c1ccc(Cl)c(Cl)c1 [Compound 549] | – | – | 99.7 | –
CCn1c(OC)nnc1[C@@H](Cc1ccccc1F)NS(=O)(=O)c1ccc(Cl)c(Cl)c1 [Compound 550] | – | – | 98.6 | –
CCn1c(OC)nnc1[C@@H](Cc1cccc(F)c1)NS(=O)(=O)c1ccc(Cl)c(Cl)c1 [Compound 551] | – | – | 101 | –
CCn1c(OC)nnc1[C@@H](Cc1cc(F)cc(F)c1)NS(=O)(=O)c1ccc(Cl)c(Cl)c1 [Compound 552] | – | – | 97.3 | –
COc1nnc([C@@H](Cc2ccccc2)NS(=O)(=O)c2ccc(Cl)c(Cl)c2)n1C [Compound 553] | – | – | 94.2 | –
CCCn1c(OC)nnc1[C@@H](Cc1ccccc1)NS(=O)(=O)c1ccc(Cl)c(Cl)c1 [Compound 554] | – | – | 88 | –
CCCCCCCCCCCCC/C=C\C(O)C(N)COP(=O)(O)O (stereo not drawn) [[^33P]-S1P, reference compound] | – | – | – | 0.15
